Where no end group is shown, it is not given here.
Tests used:
[1] = test system: EV71 virus-SCARB2 interaction; assay: Virus-SCARB2 co-immunoprecipitation competition; type: binding; details: SCARB2-Flag 293T lysates incubated with EV71 virus with or without compound, anti-Flag IP, anti-VP1 immunoblotting
Method: Fig 5 LL-18 interferes with virus-SCARB2 interaction. (A) Molecular docking model of LL-18 with EV71 virion. […] The amino acid residues of capsid protein interacting with both LL-18 and SCARB2 are indicated (right panel). (B) 293T cells expressing SCARB2-Flag were lysed and cell lysates were incubated with EV71 virus in the absence or presence of the indicated amount of LL-18. Cell lysates were then immunoprecipitated with anti-Flag antibody and the precipitated virus was determined with anti-VP1 antibody. (C) 293T cells expressing Annexin 2-Flag were lysed and cell lysates were incubated with EV71 virus in the absence or presence of LL-18. Cell lysates were then immunoprecipitated with anti-Flag antibody and the precipitated virus was determined with anti-VP1 antibody.
Coimmunoprecipitation was performed as previously described. Briefly, VP1, VP2, and VP3 were PCR amplified and cloned into pcDNA3.1 with an HA tag. LL-18 or LL-37 encoding oligonucleotides were inserted into an eGFP-expressing construct (pHW200-eGFP). […] After washing with wash buffer (0.05% Triton X-100) six times, samples were analyzed by Western blotting.
Supplementary file ppat.1011967.s004.tif: S4 Fig Compound 12s interferes with virus-SCARB2 interaction. […] Cell lysates were then immunoprecipitated with anti-Flag antibody and the precipitated virus was determined with anti-VP1 antibody. […]

EV71 virus = assay: 1H NMR titration of peptide with EV71 virus; type: binding, enterovirus 71 (EV71); details: molar ratio peptide to virus 90:1, 800 MHz, 298k
Method: The NMR titrations were performed on a Bruker 800 MHz (Avance NEO) spectrometer equipped with cryo-probe. The molar ratio of the peptide to the virus was 90:1. The experiments were recorded using zgespg pulse for 128 scans at 298k and the results were analyzed by Topspin.

EV71 virions [2] = assay: Viral particle ultracentrifugation (uncoating with SCARB2 at pH 5.5); design: species or system enterovirus 71 (EV71); details: EV71 MOI = 10, 1.5 μg SCARB2, pH 5.5, 37°C 2 hrs, iodoxanol gradient ultracentrifugation, immunoblotting
Method: (§1) Fig 6 LL-18 stabilizes the viral particles by inhibiting uncoating. (A) EV71 virus (MOI = 10) was pre-incubated with PBS, indicated amount of LL-18 or NaCl for 1 hr and then mixed with SYBR green dyes II before they were heated to indicated temperatures. The fluorescent signals were measured and plotted against temperature. PBS was used as a negative control. (B) EV71 virus (MOI = 10) was pre-incubated with PBS, LL-18, or 12s for 2 hrs. Half of the samples were then treated with 1.5 μg SCARB2 protein and incubated at 37°C for 2 hrs at pH 5.5. Samples were then subjected to ultracentrifugation as detailed in materials and methods. The numbers above represent the fractions collected from top to bottom.
EV71 viruses were pre-incubated with either PBS, 12s, or LL-18 for 1 hr. Then half the samples were treated with 1.5 μg purified SCARB2 protein (Sino Biological, China) with pH adjusted to 5.5. The samples were incubated at 37°C for 2 hrs to simulate the virus uncoating environment. Viral particles were then loaded onto iodoxanol gradients (0% 500 μL, 21% 1 mL, 27% 1 mL, 33% 1 mL, 39% 1 mL) and ultra-centrifuged at 4°C, 45000 rpm for 1.5 hrs. 7 fractions were collected from the top, and samples were precipitated with Trichloroacetic acid (TCA) before being analyzed with immunoblotting.

EV71 virions [3] = assay: Viral particle stability thermal release assay (PaSTRY); design: species or system enterovirus 71 (EV71); details: EV71 MOI = 10 pre-incubated with LL-18 or NaCl, SYBR green II, heated 25°C to 80°C; PBS control around 45°C
Method: as §1
EV71 viruses were preincubated with either PBS, NaCl or the indicated amount of LL-18 at room temperature for 2 hrs, before Sybr green II dye (3× working concentration, Solarbio, China) and RNase inhibitor (1 U/μL, Thermo Scientific) were added. The mixture was heated from 25°C to 80°C with an increment of 0.5°C for 30 seconds, and the fluorescence from SYBR green was monitored with a QuantGene 9600 real-time PCR system (Bioer, China).

FRKSKEKIGKLFKRIVQRILDFLRNLV [LL-18]
inhibition of EV71 virus binding to SCARB2 [1]: inhibit virus binding to SCARB2 in a dose-dependent manner | interaction of peptide with EV71 virus by 1H 1D NMR (amide region) (EV71 virus): chemical shift perturbation with multiple new peaks was observed | inhibition of uncoating (VP1 distribution in density gradient fractions) (EV71 virions [2]): remained in the higher density fractions | temperature of peak SYBR green fluorescence intensity (RNA release) (EV71 virions [3]): 53 °C
